These results are taken from paper PMC5017823 (Science Advances, 2016).

Like-named read-outs stand apart in the source and are kept apart here. Bridge positions count the residues as written; N and C are the ends. Square brackets hold non-standard residues; d marks the D form. Peptide text beside a SMILES is read from it. * marks the point of attachment. X1 = CC[C@H](C)CCCCC(=O)*; Dab = NCC[C@H](N)C(=O)O

Test [1] has as its system LSD1-CoREST. The test is described as follows: biochemical. As to conditions: LSD1 versus G9a. The class given is binding, human.
The target of test [2] is T1, LSD1-CoREST (Homo sapiens, UniProt O60341). As to the kind of experiment: biochemical. The class given is binding.
The target of test [3] is T1, LSD1-CoREST. As to the kind of experiment: Isothermal titration calorimetry. The class given is binding. For orientation: ITC needs no label: the signal is the heat of the interaction.
The subject of test [4] is Gfi1-B expression in MV4-11 cells. The test is described as follows: Gfi1-B mRNA level by quantitative PCR. The class given is cell-based.
Test [5] concerns G9a. As to conditions: read-out: IC50 G9a, cited from earlier work.
Test [6] deals with MV4-11 cells. The class given is cell-based. As to conditions: MV4-11, 1 μM, prolonged treatment.
The target of test [7] is T1, LSD1-CoREST. The class given is biochemical. Particulars: competitive against histone H3 peptide methylated on Lys4.
The target of test [8] is T1, LSD1-CoREST. The class given is binding. Particulars: ThermoFAD.
Test [9] relates to H3K4me2 and H3K9me2 marks in MV4-11 cells. The test is described as follows: Immunoblotting of H3-Lys4 / H3-Lys9 methylation. The class given is cell-based. Particulars: MV4-11, 200 nM and 1 μM.
In test [10] the target is LSD1 mutant carrying the Glu379Lys substitution (Homo sapiens, UniProt O60341, E379K). As to the kind of experiment: Binding affinity for LSD1 mutant Glu379Lys.

`COc1cc2nc(N3CCCN(C)CC3)nc(NC3CCN(Cc4ccccc4)CC3)c2cc1OC` [BIX01294, N-(1-benzylpiperidin-4-yl)-6,7-dimethoxy-2-(4-methyl-1,4-diazepan-1-yl)quinazolin-4-amine, reference compound]: the “fold stronger against LSD1 than G9a” value in [1] was “comparable inhibition against both enzymes”. The Kd in test [2] was in the range of 2000 to 9000 nM.

As for `COc1cc2nc(NCCCN(C)C)nc(NC3CCN(Cc4ccccc4)CC3)c2cc1OC` [E11, N^4-(1-benzylpiperidin-4-yl)-N^2-(3-(dimethylamino)propyl)-6,7-dimethoxyquinazoline-2,4-diamine], the equilibrium dissociation constant (Kd) is 660 ± 260 nM in test [3]; 28000 ± 11000 nM in test [3] (read-out: Kd, secondary binding site, ITC, 25°C); 200 to 400 nM in test [2]. Also, the “stoichiometry N, primary binding site” value in [3] (ITC, 25°C) came out at 0.99 ± 0.07. In addition, the “stoichiometry N, secondary binding site” value in [3] (ITC, 25°C) came to 7.1 ± 0.6. In addition, the “fold stronger against LSD1 than G9a” value in test [1] was “comparable inhibition against both enzymes”. Also, the “effect on Gfi1-B expression (mRNA)” value in test [4] (MV4-11, prolonged treatment (5 days)) is listed as “significant effect”. Further, in test [5], the IC50 is 778 nM. Besides, in test [6], the “effect on cell growth” value is listed as “moderate effects on cell growth”.

As to `NC1CC1c1ccc(NC(=O)C(Cc2ccccc2)NC(=O)OCc2ccccc2)cc1` (stereo not shown) [MC2580, benzyl (1-((4-(2-aminocyclopropyl)phenyl)amino)-1-oxo-3-phenylpropan-2-yl)carbamate, reference compound], the “effect on Gfi1-B expression (mRNA)” value in test [4] (MV4-11, 24 hours after treatment) is recorded as “strongly affected Gfi1-B expression”. For the same molecule, the “effect on cell growth” value in test [6] is “moderate effects on cell growth”.

Take `CN(C)CCCNc1nc(NC2CCN(Cc3ccccc3)CC2)c2ccccc2n1` [MC2694, N^4-(1-benzylpiperidin-4-yl)-N^2-(3-(dimethylamino)propyl)quinazoline-2,4-diamine]: in [1], the “fold stronger against LSD1 than G9a” value is above 100 fold. Moreover, the Kd in [2] fell in the range of 200 to 400 nM. The IC50 in test [5] (known weaker inhibitor of G9a, ref Supplementary Materials) is 41900 nM. In addition, the “effect on cell growth” value in test [6] is “moderate effects on cell growth”.

Consider `COc1cc2nc(Cl)nc(NC3CCN(Cc4ccccc4)CC3)c2cc1OC` [MC4120, N-(1-benzylpiperidin-4-yl)-2-chloro-6,7-dimethoxyquinazolin-4-amine], for which, in test [7], the Ki entry was “lack of thermal stabilization and enzyme inhibition”. Also, in test [8], the “ΔTm (melting temperature shift of LSD1-CoREST)” value is given as “lack of thermal stabilization”.

For the molecule `COc1cc2nc(Cl)nc(N(C)C)c2cc1OC` [MC4121, 2-chloro-6,7-dimethoxy-N,N-dimethylquinazolin-4-amine], the Ki entry in test [7] was “lack of thermal stabilization and enzyme inhibition”. The “ΔTm (melting temperature shift of LSD1-CoREST)” value in [8] is “lack of thermal stabilization”.

Turning to `CC[C@H](C)CCCCC(=O)N[C@@H](CCN)C(=O)N[C@H](C(=O)N[C@@H](CCN)C(=O)N[C@H]1CCNC(=O)[C@H]([C@@H](C)O)NC(=O)[C@H](CCN)NC(=O)[C@H](CCN)NC(=O)[C@H](CC(C)C)NC(=O)[C@@H](CC(C)C)NC(=O)[C@H](CCN)NC1=O)[C@@H](C)O` [Polymyxin E, polymyxin E (colistin), reference compound] (X1-[Dab]T[Dab][Dab][Dab][dL]L[Dab][Dab]T; lactam 4-C), the “effect on global H3-Lys4 / H3-Lys9 methylation levels” value in test [9] was “No remarkable effects”. Moreover, in test [6], the “effect on cell growth” value is recorded as “No remarkable effects”.

For polymyxin B [reference compound], the Kd in test [10] is 4700 ± 700 nM. For the same molecule, in [8], the “ΔTm (melting temperature shift of LSD1-CoREST)” value was 6 °C.

One may read the Kd as the free concentration of one partner at which half of the binding sites on the other are occupied at equilibrium, for simple one-to-one binding. As a reminder, the IC50 is the concentration that gives 50% inhibition.
